# Source: ChEMBL document CHEMBL1201862, “PubChem BioAssay data set” (2004)
#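 Following 48 hours of exposure in 96-well plates, responses at five concentrations were used to interpolate endpoints linearly. GI50: concentration for 50% inhibition of growth.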 Activity calls are given as the source filed them. No stated cut-off is given here; in the data, active = GI50 up to about 1.1 µM and inactive = higher.
# What was measured:
# Assay in all cases: inhibition of tumour cell growth, NCI panel, 48 h
# 786-0 = tested on: 786-0
# A549 = tested on: A549
# ACHN = tested on: ACHN
# COLO 205 = tested on: COLO 205
# DMS-114 = tested on: DMS-114
# DMS-273 = tested on: DMS-273
# HCT-15 = tested on: HCT-15
# HL-60 = tested on: HL-60
# HT-29 = tested on: HT-29
# IGROV-1 = tested on: IGROV-1
# KM-20L2 = tested on: KM-20L2
# LOX IMVI = tested on: LOX IMVI
# LXFL 529 = tested on: LXFL 529
# M14 = tested on: M14
# M19-MEL = tested on: M19-MEL
# MOLT-4 = tested on: MOLT-4
# NCI-H23 = tested on: NCI-H23
# NCI-H460 = tested on: NCI-H460
# NCI-H522 = tested on: NCI-H522
# OVCAR-3 = tested on: OVCAR-3
# OVCAR-5 = tested on: OVCAR-5
# OVCAR-8 = tested on: OVCAR-8
# RPMI-8226 = tested on: RPMI-8226
# RXF 393 = tested on: RXF 393
# SK-MEL-28 = tested on: SK-MEL-28
# SK-MEL-5 = tested on: SK-MEL-5
# SK-OV-3 = tested on: SK-OV-3
# SN12C = tested on: SN12C
# SNB-75 = tested on: SNB-75
# SR = tested on: SR
# TK-10 = tested on: TK-10
# UACC-257 = tested on: UACC-257
# UACC-62 = tested on: UACC-62
# DLD-1 = tested on: DLD-1
# HCT-116 = tested on: HCT-116
# HOP-18 = tested on: HOP-18
# KM12 = tested on: KM12
# Malme-3M = tested on: Malme-3M
# NCI-H226 = tested on: NCI-H226
# OVCAR-4 = tested on: OVCAR-4
# SF-268 = tested on: SF-268
# SF-295 = tested on: SF-295
# SF-539 = tested on: SF-539
# SK-MEL-2 = tested on: SK-MEL-2
# SNB-19 = tested on: SNB-19
# SNB-78 = tested on: SNB-78
# UO-31 = tested on: UO-31
# A498 = tested on: A498
# CAKI-1 = tested on: CAKI-1
# EKVX = tested on: EKVX
# HCC 2998 = tested on: HCC 2998
# HOP-62 = tested on: HOP-62
# HOP-92 = tested on: HOP-92
# K562 = tested on: K562
# SW-620 = tested on: SW-620
# U-251 = tested on: U-251
# BT-549 = tested on: BT-549
# CCRF-CEM = tested on: CCRF-CEM
# DU-145 = tested on: DU-145
# Hs-578T = tested on: Hs-578T
# MCF7 = tested on: MCF7
# MDA-MB-231 = tested on: MDA-MB-231
# MDA-MB-435 = tested on: MDA-MB-435
# MDA-N = tested on: MDA-N
# NCI/ADR-RES = tested on: NCI/ADR-RES
# PC-3 = tested on: PC-3
# T47D = tested on: T47D
smiles,measurement,setting,value
CC1=C[P+](Cc2ccccc2)(c2ccccc2)CC1 (stereo not drawn),GI50,786-0,> 100 µM (inactive)
same,GI50,A549,> 100 µM (inactive)
same,GI50,ACHN,> 100 µM (inactive)
same,GI50,COLO 205,41.5 µM (inactive)
same,GI50,DMS-114,35.2 µM (inactive)
same,GI50,DMS-273,> 100 µM (inactive)
same,GI50,HCT-15,88.1 µM
same,GI50,HL-60,36.3 µM (inactive)
same,GI50,HT-29,77.3 µM (inactive)
same,GI50,IGROV-1,96.8 µM (inactive)
same,GI50,KM-20L2,94.2 µM (inactive)
same,GI50,LOX IMVI,> 100 µM (inactive)
same,GI50,LXFL 529,23.3 µM (inactive)
same,GI50,M14,77.6 µM (inactive)
same,GI50,M19-MEL,29.9 µM (inactive)
same,GI50,MOLT-4,> 100 µM (inactive)
same,GI50,NCI-H23,> 100 µM (inactive)
same,GI50,NCI-H460,> 100 µM (inactive)
same,GI50,NCI-H522,65.2 µM (inactive)
same,GI50,OVCAR-3,47.8 µM (inactive)
same,GI50,OVCAR-5,> 100 µM (inactive)
same,GI50,OVCAR-8,> 100 µM (inactive)
same,GI50,RPMI-8226,28.6 µM (inactive)
same,GI50,RXF 393,> 100 µM (inactive)
same,GI50,SK-MEL-28,81.1 µM (inactive)
same,GI50,SK-MEL-5,27 µM (inactive)
same,GI50,SK-OV-3,> 100 µM (inactive)
same,GI50,SN12C,> 100 µM (inactive)
same,GI50,SNB-75,> 100 µM (inactive)
same,GI50,SR,57 µM (inactive)
same,GI50,TK-10,98.9 µM (inactive)
same,GI50,UACC-257,21.5 µM (inactive)
same,GI50,UACC-62,66.5 µM (inactive)
CC(=O)Oc1cc(OC(C)=O)c2c(=O)c3ccccc3n(C)c2c1,GI50,A549,41.3 µM (inactive)
same,GI50,ACHN,22 µM (inactive)
same,GI50,DLD-1,21.9 µM (inactive)
same,GI50,DMS-114,18.4 µM (inactive)
same,GI50,DMS-273,16 µM (inactive)
same,GI50,HCT-116,26.1 µM (inactive)
same,GI50,HCT-15,42.1 µM
same,GI50,HOP-18,14 µM (inactive)
same,GI50,HT-29,23.7 µM (inactive)
same,GI50,IGROV-1,14.7 µM (inactive)
same,GI50,KM12,33.2 µM (inactive)
same,GI50,LOX IMVI,11.5 µM (inactive)
same,GI50,LXFL 529,34.8 µM (inactive)
same,GI50,M19-MEL,21.6 µM (inactive)
same,GI50,MOLT-4,38 µM (inactive)
same,GI50,Malme-3M,25.7 µM (inactive)
same,GI50,NCI-H226,17.1 µM (inactive)
same,GI50,NCI-H23,22.6 µM (inactive)
same,GI50,NCI-H460,19.4 µM (inactive)
same,GI50,NCI-H522,10.4 µM (inactive)
same,GI50,OVCAR-3,56.9 µM (inactive)
same,GI50,OVCAR-4,48.9 µM (inactive)
same,GI50,OVCAR-8,16 µM (inactive)
same,GI50,RXF 393,34 µM (inactive)
same,GI50,SF-268,23.2 µM (inactive)
same,GI50,SF-295,13.1 µM (inactive)
same,GI50,SF-539,18.7 µM (inactive)
same,GI50,SK-MEL-28,25.4 µM (inactive)
same,GI50,SK-MEL-2,33 µM (inactive)
same,GI50,SK-MEL-5,15.1 µM (inactive)
same,GI50,SK-OV-3,25.2 µM (inactive)
same,GI50,SN12C,25.5 µM (inactive)
same,GI50,SNB-19,33.7 µM (inactive)
same,GI50,SNB-75,27.4 µM (inactive)
same,GI50,SNB-78,31.6 µM (inactive)
same,GI50,TK-10,29.8 µM (inactive)
same,GI50,UACC-257,30.1 µM (inactive)
same,GI50,UACC-62,31.8 µM (inactive)
same,GI50,UO-31,21.2 µM (inactive)
CCN(CC)CCNC(=O)c1cccc2nc3ccccc3nc12,GI50,786-0,27 µM (inactive)
same,GI50,A498,11.7 µM (inactive)
same,GI50,A549,8.05 µM (inactive)
same,GI50,ACHN,5.06 µM (inactive)
same,GI50,CAKI-1,> 39.3 µM (inactive)
same,GI50,COLO 205,3.78 µM (inactive)
same,GI50,DLD-1,> 26.7 µM (inactive)
same,GI50,DMS-114,7.85 µM (inactive)
same,GI50,DMS-273,7.26 µM (inactive)
same,GI50,EKVX,23.4 µM (inactive)
same,GI50,HCC 2998,14.2 µM (inactive)
same,GI50,HCT-116,4.16 µM (inactive)
same,GI50,HCT-15,6.53 µM
same,GI50,HOP-18,> 26.4 µM (inactive)
same,GI50,HOP-62,13.2 µM (inactive)
same,GI50,HOP-92,38.4 µM (inactive)
same,GI50,HT-29,4.55 µM (inactive)
same,GI50,IGROV-1,38.3 µM (inactive)
same,GI50,K562,1.38 µM (inactive)
same,GI50,KM-20L2,13.6 µM (inactive)
same,GI50,KM12,10.3 µM (inactive)
same,GI50,LOX IMVI,4.4 µM (inactive)
same,GI50,LXFL 529,16.9 µM (inactive)
same,GI50,M14,18.5 µM (inactive)
same,GI50,MOLT-4,4.91 µM (inactive)
same,GI50,Malme-3M,11.4 µM (inactive)
same,GI50,NCI-H226,8.15 µM (inactive)
same,GI50,NCI-H23,13.7 µM (inactive)
same,GI50,NCI-H522,28.5 µM (inactive)
same,GI50,OVCAR-3,8.34 µM (inactive)
same,GI50,OVCAR-4,12.8 µM (inactive)
same,GI50,OVCAR-5,15.8 µM (inactive)
same,GI50,OVCAR-8,14 µM (inactive)
same,GI50,RPMI-8226,7.64 µM (inactive)
same,GI50,RXF 393,12.4 µM (inactive)
same,GI50,SF-268,0.318 µM (active)
same,GI50,SF-295,11 µM (inactive)
same,GI50,SF-539,8.45 µM (inactive)
same,GI50,SK-MEL-28,17.5 µM (inactive)
same,GI50,SK-MEL-2,13.3 µM (inactive)
same,GI50,SK-MEL-5,> 46 µM (inactive)
same,GI50,SK-OV-3,> 49 µM (inactive)
same,GI50,SN12C,10.3 µM (inactive)
same,GI50,SNB-19,21.2 µM (inactive)
same,GI50,SNB-75,> 36.8 µM (inactive)
same,GI50,SNB-78,21.4 µM (inactive)
same,GI50,SW-620,5.48 µM (inactive)
same,GI50,TK-10,27.2 µM (inactive)
same,GI50,U-251,16.9 µM (inactive)
same,GI50,UACC-257,7.26 µM (inactive)
same,GI50,UACC-62,18.9 µM (inactive)
same,GI50,UO-31,> 24.8 µM (inactive)
O=[N+]([O-])c1cccc2nc3ccccc3c(NCCCN3CCOCC3)c12,GI50,786-0,< 0.0106 µM (active)
same,GI50,A498,< 0.0146 µM (active)
same,GI50,A549,< 0.0121 µM (active)
same,GI50,ACHN,< 0.01 µM (active)
same,GI50,BT-549,0.0273 µM (active)
same,GI50,CAKI-1,0.0221 µM (active)
same,GI50,CCRF-CEM,< 0.0199 µM (active)
same,GI50,COLO 205,< 0.01 µM (active)
same,GI50,DU-145,< 0.01 µM (active)
same,GI50,EKVX,< 0.0127 µM (active)
same,GI50,HCC 2998,< 0.01 µM (active)
same,GI50,HCT-116,< 0.01 µM (active)
same,GI50,HCT-15,< 0.0104 µM
same,GI50,HL-60,0.0302 µM (active)
same,GI50,HOP-62,< 0.016 µM (active)
same,GI50,HOP-92,0.0159 µM (active)
same,GI50,HT-29,< 0.01 µM (active)
same,GI50,Hs-578T,0.0405 µM (active)
same,GI50,IGROV-1,0.0217 µM (active)
same,GI50,K562,0.015 µM (active)
same,GI50,KM12,0.0154 µM (active)
same,GI50,LOX IMVI,0.0442 µM (active)
same,GI50,M14,< 0.0124 µM (active)
same,GI50,MCF7,< 0.0116 µM (active)
same,GI50,MDA-MB-231,0.0189 µM (active)
same,GI50,MDA-MB-435,< 0.0117 µM (active)
same,GI50,MDA-N,< 0.01 µM (active)
same,GI50,MOLT-4,< 0.01 µM (active)
same,GI50,Malme-3M,0.0142 µM (active)
same,GI50,NCI-H226,0.0213 µM (active)
same,GI50,NCI-H23,< 0.0129 µM (active)
same,GI50,NCI-H460,< 0.01 µM (active)
same,GI50,NCI-H522,0.0168 µM (active)
same,GI50,NCI/ADR-RES,0.044 µM (active)
same,GI50,OVCAR-3,0.0184 µM (active)
same,GI50,OVCAR-4,0.0191 µM (active)
same,GI50,OVCAR-5,0.0287 µM (active)
same,GI50,OVCAR-8,0.012 µM (active)
same,GI50,PC-3,0.0219 µM (active)
same,GI50,RPMI-8226,0.0103 µM (active)
same,GI50,RXF 393,< 0.013 µM (active)
same,GI50,SF-268,0.0226 µM (active)
same,GI50,SF-295,0.0256 µM (active)
same,GI50,SF-539,0.0283 µM (active)
same,GI50,SK-MEL-28,0.034 µM (active)
same,GI50,SK-MEL-2,0.0194 µM (active)
same,GI50,SK-MEL-5,< 0.0114 µM (active)
same,GI50,SK-OV-3,0.0362 µM (active)
same,GI50,SN12C,< 0.0132 µM (active)
same,GI50,SNB-19,0.0304 µM (active)
same,GI50,SNB-75,0.0387 µM (active)
same,GI50,SR,< 0.01 µM (active)
same,GI50,SW-620,< 0.01 µM (active)
same,GI50,T47D,0.0355 µM (active)
same,GI50,TK-10,0.029 µM (active)
same,GI50,U-251,0.0276 µM (active)
same,GI50,UACC-257,0.0235 µM (active)
same,GI50,UACC-62,0.0163 µM (active)
same,GI50,UO-31,0.0144 µM (active)
